Results published in PubChem BioAssay (NCI).
Several values for one entry are separate records, joined by “and”; a condition that tells them apart may be missing. Equal entries are not always repeated.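 Five concentrations, 48 hours, 96-well plates. GI50: concentration for 50% inhibition of growth. At the TGI there is no net growth.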

Tested on: A498 renal
Test: NCI anticancer screen, dose series, 48 h

SMILES | GI50 [nM] | TGI [µM]
O=C(Nc1cc(Nc2ncccc2-c2ncnc3nc[nH]c23)ccc1F)c1cc(C(F)(F)F)cc(C(F)(F)F)c1 | 648 | 3.92
COc1cc(/C=C2\[C@H]3c4c(c(OC)c(C)c(OC)c4OC)CC(C(=O)N2Cc2ccccc2)N3C)c(OC)c(C)c1OC |  | 50.1
CN(C)C(=S)SSC(=S)N(C)C | 15100 | > 100
CCCCCCCCCCNC(=O)CI | 12400 | 26.1
CCCC/C(=C\C1=C(C)C(=O)C(OC)=C(OC)C1=O)C(=O)O | > 100000 | > 100
CCc1ccc2c(c1)C(=O)c1c-2n(CCCN=[N+]=[N-])c(=O)c2cc([N+](=O)[O-])ccc12 | > 50000 | > 50
Cc1cc(N/N=C/c2ccccn2)nc2ccccc12 | 633 | 7.05
COc1ccc(C(CC(=O)c2ccc3c(c2)OCO3)c2c(O)c3ccccc3oc2=O)cc1OC (stereo not drawn) |  | > 100
O=C(N/C(=C\c1ccc([N+](=O)[O-])cc1)c1nc2ccccc2[nH]1)c1ccccc1 |  | > 100
COC(=O)/C([Se]c1c(C)cc(C)cc1C)=C(/[Se]c1c(C)cc(C)cc1C)C(=O)OC |  | > 100
Nc1cc(Br)c(-c2nnc(CCC(=O)c3nc4ccccc4[nH]3)o2)c(Br)c1 | 662 | 10.5
Cc1cc2c(c(C(N)=O)c1C)-c1ccccc1C2=O |  | > 100
COC(=O)/C(=N/O)C(C(=O)C=C(C)C)C(=O)C(=O)Nc1nc2ccc([N+](=O)[O-])cc2s1 (stereo not drawn) |  | 31
CCOC(=O)NC(=O)c1cn(C2CCCCC2)c(=O)[nH]c1=O |  | > 100
COc1ccc(/C(C)=C(\c2ccc(OCCN3CCCCCC3)cc2)c2ccc(OC(=O)C3CCCCC3)cc2)cc1 | 1350 | 3.45

Tested on: NCI-H522 lung
Test: NCI anticancer screen, dose series, 48 h

SMILES | GI50 [nM] | TGI
O=C(Nc1cc(Nc2ncccc2-c2ncnc3nc[nH]c23)ccc1F)c1cc(C(F)(F)F)cc(C(F)(F)F)c1 | 2380 | > 10 µM
COc1cc(/C=C2\[C@H]3c4c(c(OC)c(C)c(OC)c4OC)CC(C(=O)N2Cc2ccccc2)N3C)c(OC)c(C)c1OC |  | 30.2 µM
CN(C)C(=S)SSC(=S)N(C)C |  | 14.7 µM and 10.4 µM and 8.24 µM
CCCCCCCCCCNC(=O)CI | 151 | 0.331 µM
CCCC/C(=C\C1=C(C)C(=O)C(OC)=C(OC)C1=O)C(=O)O | > 100000 | > 100 µM
CCc1ccc2c(c1)C(=O)c1c-2n(CCCN=[N+]=[N-])c(=O)c2cc([N+](=O)[O-])ccc12 | > 50000 | > 50 µM
Cc1cc(N/N=C/c2ccccn2)nc2ccccc12 | 359 | 4.81 µM
COc1ccc(C(CC(=O)c2ccc3c(c2)OCO3)c2c(O)c3ccccc3oc2=O)cc1OC (stereo not drawn) |  | > 100 µM
O=C(N/C(=C\c1ccc([N+](=O)[O-])cc1)c1nc2ccccc2[nH]1)c1ccccc1 |  | > 100 µM
COC(=O)/C([Se]c1c(C)cc(C)cc1C)=C(/[Se]c1c(C)cc(C)cc1C)C(=O)OC |  | > 100 µM
Nc1cc(Br)c(-c2nnc(CCC(=O)c3nc4ccccc4[nH]3)o2)c(Br)c1 | 2900 | 16.9 µM
Cc1cc2c(c(C(N)=O)c1C)-c1ccccc1C2=O |  | > 100 µM
COC(=O)/C(=N/O)C(C(=O)C=C(C)C)C(=O)C(=O)Nc1nc2ccc([N+](=O)[O-])cc2s1 (stereo not drawn) |  | > 100 µM
CCOC(=O)NC(=O)c1cn(C2CCCCC2)c(=O)[nH]c1=O |  | > 100 µM
COc1ccc(/C(C)=C(\c2ccc(OCCN3CCCCCC3)cc2)c2ccc(OC(=O)C3CCCCC3)cc2)cc1 | 2120 | 5.36 µM

Tested on: OVCAR-5 ovarian
Test: NCI anticancer screen, dose series, 48 h

SMILES | GI50 | TGI
O=C(Nc1cc(Nc2ncccc2-c2ncnc3nc[nH]c23)ccc1F)c1cc(C(F)(F)F)cc(C(F)(F)F)c1 | 0.868 µM | 2.98 µM
COc1cc(/C=C2\[C@H]3c4c(c(OC)c(C)c(OC)c4OC)CC(C(=O)N2Cc2ccccc2)N3C)c(OC)c(C)c1OC |  | 71.8 µM
CN(C)C(=S)SSC(=S)N(C)C | 14.9 µM and > 58.4 µM and 16.6 µM | 28.2 µM and > 72.6 µM and 33.5 µM
CCCCCCCCCCNC(=O)CI | 3.39 µM | 10.4 µM
CCCC/C(=C\C1=C(C)C(=O)C(OC)=C(OC)C1=O)C(=O)O | > 100 µM | > 100 µM
CCc1ccc2c(c1)C(=O)c1c-2n(CCCN=[N+]=[N-])c(=O)c2cc([N+](=O)[O-])ccc12 | > 50 µM | > 50 µM
Cc1cc(N/N=C/c2ccccn2)nc2ccccc12 | 0.542 µM | 18.5 µM
COc1ccc(C(CC(=O)c2ccc3c(c2)OCO3)c2c(O)c3ccccc3oc2=O)cc1OC (stereo not drawn) |  | > 100 µM
O=C(N/C(=C\c1ccc([N+](=O)[O-])cc1)c1nc2ccccc2[nH]1)c1ccccc1 |  | > 100 µM
COC(=O)/C([Se]c1c(C)cc(C)cc1C)=C(/[Se]c1c(C)cc(C)cc1C)C(=O)OC |  | > 100 µM
Nc1cc(Br)c(-c2nnc(CCC(=O)c3nc4ccccc4[nH]3)o2)c(Br)c1 | 29.4 µM | > 100 µM
Cc1cc2c(c(C(N)=O)c1C)-c1ccccc1C2=O |  | > 100 µM
COC(=O)/C(=N/O)C(C(=O)C=C(C)C)C(=O)C(=O)Nc1nc2ccc([N+](=O)[O-])cc2s1 (stereo not drawn) |  | > 100 µM
CCOC(=O)NC(=O)c1cn(C2CCCCC2)c(=O)[nH]c1=O |  | > 100 µM
COc1ccc(/C(C)=C(\c2ccc(OCCN3CCCCCC3)cc2)c2ccc(OC(=O)C3CCCCC3)cc2)cc1 | 1.41 µM | 3.44 µM

Tested on: K-562 leukemia
Test: NCI anticancer screen, dose series, 48 h

SMILES | GI50 [nM] | TGI
O=C(Nc1cc(Nc2ncccc2-c2ncnc3nc[nH]c23)ccc1F)c1cc(C(F)(F)F)cc(C(F)(F)F)c1 | 400 | > 10 µM
COc1cc(/C=C2\[C@H]3c4c(c(OC)c(C)c(OC)c4OC)CC(C(=O)N2Cc2ccccc2)N3C)c(OC)c(C)c1OC |  | 62.1 µM
CN(C)C(=S)SSC(=S)N(C)C |  | > 100 µM and 16.5 µM
CCCCCCCCCCNC(=O)CI | 938 | 3.95 µM
CCCC/C(=C\C1=C(C)C(=O)C(OC)=C(OC)C1=O)C(=O)O | 50100 | > 100 µM
CCc1ccc2c(c1)C(=O)c1c-2n(CCCN=[N+]=[N-])c(=O)c2cc([N+](=O)[O-])ccc12 | > 50000 | > 50 µM
Cc1cc(N/N=C/c2ccccn2)nc2ccccc12 | 422 | 7.55 µM
COc1ccc(C(CC(=O)c2ccc3c(c2)OCO3)c2c(O)c3ccccc3oc2=O)cc1OC (stereo not drawn) |  | > 100 µM
O=C(N/C(=C\c1ccc([N+](=O)[O-])cc1)c1nc2ccccc2[nH]1)c1ccccc1 |  | > 100 µM
COC(=O)/C([Se]c1c(C)cc(C)cc1C)=C(/[Se]c1c(C)cc(C)cc1C)C(=O)OC |  | > 100 µM
Nc1cc(Br)c(-c2nnc(CCC(=O)c3nc4ccccc4[nH]3)o2)c(Br)c1 | 2890 | > 100 µM
Cc1cc2c(c(C(N)=O)c1C)-c1ccccc1C2=O |  | > 100 µM
COC(=O)/C(=N/O)C(C(=O)C=C(C)C)C(=O)C(=O)Nc1nc2ccc([N+](=O)[O-])cc2s1 (stereo not drawn) |  | > 100 µM
CCOC(=O)NC(=O)c1cn(C2CCCCC2)c(=O)[nH]c1=O |  | > 100 µM
COc1ccc(/C(C)=C(\c2ccc(OCCN3CCCCCC3)cc2)c2ccc(OC(=O)C3CCCCC3)cc2)cc1 | 356 | 6.14 µM

Tested on: NCI-H23 lung
Test: NCI anticancer screen, dose series, 48 h

SMILES | GI50 | TGI
O=C(Nc1cc(Nc2ncccc2-c2ncnc3nc[nH]c23)ccc1F)c1cc(C(F)(F)F)cc(C(F)(F)F)c1 | 1.45 µM | > 10 µM
COc1cc(/C=C2\[C@H]3c4c(c(OC)c(C)c(OC)c4OC)CC(C(=O)N2Cc2ccccc2)N3C)c(OC)c(C)c1OC |  | > 100 µM
CN(C)C(=S)SSC(=S)N(C)C | 21.5 µM and 4.49 µM and 21 µM | 64.9 µM and 14.3 µM and 43.7 µM
CCCCCCCCCCNC(=O)CI | 0.929 µM | 2.74 µM
CCCC/C(=C\C1=C(C)C(=O)C(OC)=C(OC)C1=O)C(=O)O | > 100 µM | > 100 µM
CCc1ccc2c(c1)C(=O)c1c-2n(CCCN=[N+]=[N-])c(=O)c2cc([N+](=O)[O-])ccc12 | > 50 µM | > 50 µM
Cc1cc(N/N=C/c2ccccn2)nc2ccccc12 | 0.831 µM | 22.2 µM
COc1ccc(C(CC(=O)c2ccc3c(c2)OCO3)c2c(O)c3ccccc3oc2=O)cc1OC (stereo not drawn) |  | > 100 µM
O=C(N/C(=C\c1ccc([N+](=O)[O-])cc1)c1nc2ccccc2[nH]1)c1ccccc1 |  | > 100 µM
COC(=O)/C([Se]c1c(C)cc(C)cc1C)=C(/[Se]c1c(C)cc(C)cc1C)C(=O)OC |  | > 100 µM
Nc1cc(Br)c(-c2nnc(CCC(=O)c3nc4ccccc4[nH]3)o2)c(Br)c1 | 3.26 µM | 36.4 µM
Cc1cc2c(c(C(N)=O)c1C)-c1ccccc1C2=O |  | > 100 µM
COC(=O)/C(=N/O)C(C(=O)C=C(C)C)C(=O)C(=O)Nc1nc2ccc([N+](=O)[O-])cc2s1 (stereo not drawn) |  | 83.2 µM
CCOC(=O)NC(=O)c1cn(C2CCCCC2)c(=O)[nH]c1=O |  | > 100 µM
COc1ccc(/C(C)=C(\c2ccc(OCCN3CCCCCC3)cc2)c2ccc(OC(=O)C3CCCCC3)cc2)cc1 | 1.29 µM | 4.32 µM
